Measurements reported in US20070093520A1, “Method of treatment of diarrhea-predominant irritable bowel syndrome in a subject” (priority 2005, published 2007).

System: diarrhea-predominant IBS subjects
Type: in vivo, human
Conditions: Cilansetron 2 mg, N=1454
Method: The study was performed in approximately 150 study centers. Approximately 1600 eligible subjects were to be given cilansetron 2 mg TID. At Visit 1, pre-treatment assessments were conducted. […] Subjects were to return to the study site one month later for Visit 3 (Day 31) for their first interim assessment. […] All subjects who discontinued from the study were to have the same post-study assessments required at Visit 7 performed at their early termination visit. […]
Stool specimens were analyzed at every visit for occult blood. An independent GERB had been established to provide advice on GI AEs during the course of the study.
Adverse events were assessed at Baseline, at each clinic visit, and at the end of the study (Month 12 or the early termination visit). All AEs, which occurred during the study were followed up in accordance with good medical practice until resolved or judged no longer clinically significant, or if a condition was chronic, until fully characterized. Adverse events could occur in the specified follow-up period and, regardless of the interval since the last administration of the study medication, were treated in the same manner as an AE which occurred during the treatment with study medication. Each AE was evaluated for duration, severity, seriousness, and causal relationship to the investigational drug. The action taken and the outcome were also recorded.
Specifically, subjects who were lost to follow-up and had no post-Baseline contact with the site were excluded from the Safety population. The subjects who discontinued from the study due to lost to follow-up were identified based on the information collected on the study termination CRF page.
After the pretreatment assessment at Visit 1 (Days […] to −3), subjects were to return to the study site for a Baseline assessment and start the treatment at Visit 2 (Day 1).
For the by time-interval analyses of disposition, prevalence of AEs, and of markedly abnormal and predefined changes in laboratory values, vital signs, and ECGs, the following interval windows were used:
Adverse events that were already present prior to the first dose of cilansetron study medication but increased in severity afterwards were considered as treatment-emergent.
The 5% cutoff point was based on the incidence within higher level terms.
Subjects were counted at most once for each primary system organ class and preferred term. Serious AEs that resolved prior to receiving study medication or occurred more than 30 days after the last dose of study medication were not included in the incidence tables. A listing of all SAEs is presented; SAEs with onset prior to receiving study medication or more than 30 days after discontinuation of study medication were flagged. The listing presents lower level term and preferred term of the SAE, severity, action taken, outcome, and relationship of the SAE, start and stop date of the SAE, study day of onset of the SAE, age, race, and sex.

Structure (SMILES): Cc1nccn1C[C@H]1CCc2c(c3cccc4c3n2CCC4)C1=O [cilansetron, (R)-(−)-4,5,6,8,9,10-hexahydro-10-[(2-methyl-1H-imidazol-1-yl)methyl]-11H-pyrido-[3,2,1-jk]-carbazol-11-one]
- TEAE incidence: Intestinal Haemorrhages: 22 (2%) n (%)
- TEAE incidence: Intestinal Infections: 1 (<1%) n (%)
- TEAE incidence: Intestinal Mucosal Hypertrophy: 1 (<1%) n (%)
- TEAE incidence: Intestinal Spasm: 1 (<1%) n (%)
- TEAE incidence: Investigations: 176 (12%) n (%)
- TEAE incidence: Irritable Bowel Syndrome Aggravated: 13 (<1%) n (%)
- TEAE incidence: Lacunar Infarction: 1 (<1%) n (%)
- TEAE incidence: Liver Function Analyses: 36 (2%) n (%)
- TEAE incidence: Liver Function Tests NOS Abnormal: 1 (<1%) n (%)
- TEAE incidence: Loose Stools: 15 (1%) n (%)
- TEAE incidence: Lumbar Spinal Cord and Nerve Root Disorders: 1 (<1%) n (%)
- TEAE incidence: Lymphocyte Count Decreased: 1 (<1%) n (%)
- TEAE incidence: Lymphocyte Count Increased: 1 (<1%) n (%)
- TEAE incidence: Lymphocyte Percentage Decreased: 1 (<1%) n (%)
- TEAE incidence: Memory Impairment: 1 (<1%) n (%)
- TEAE incidence: Memory Loss (Excl Dementia): 2 (<1%) n (%)
- TEAE incidence: Meralgia Paraesthetica: 1 (<1%) n (%)
- TEAE incidence: Metabolism Tests NEC: 9 (<1%) n (%)
- TEAE incidence: Migraine Aggravated: 1 (<1%) n (%)
- TEAE incidence: Migraine Headaches: 7 (<1%) n (%)
- TEAE incidence: Migraine NOS: 6 (<1%) n (%)
- TEAE incidence: Mineral and Electrolyte Analyses: 4 (<1%) n (%)
- TEAE incidence: Monocyte Count Increased: 1 (<1%) n (%)
- TEAE incidence: Mononeuropathies: 6 (<1%) n (%)
- TEAE incidence: Mouth Cyst: 1 (<1%) n (%)
- TEAE incidence: Musculoskeletal and Connective Tissue Signs and Symptoms NEC: 66 (5%) n (%)
- TEAE incidence: Musculoskeletal and connective tissue disorders: 129 (9%) n (%)
- TEAE incidence: Narcolepsy and Hypersomnia: 1 (<1%) n (%)
- TEAE incidence: Nausea Aggravated: 1 (<1%) n (%)
- TEAE incidence: Nervous system disorders: 155 (11%) n (%)
- TEAE incidence: Neuralgia NOS: 4 (<1%) n (%)
- TEAE incidence: Neurological Signs and Symptoms NEC: 30 (2%) n (%)
- TEAE incidence: Neutrophil Count Decreased: 2 (<1%) n (%)
- TEAE incidence: Neutrophil Count Increased: 2 (<1%) n (%)
- TEAE incidence: Neutrophil Percentage Decreased: 2 (<1%) n (%)
- TEAE incidence: Nitrite Urine Present: 4 (<1%) n (%)
- TEAE incidence: Non-Mechanical Ileus: 1 (<1%) n (%)
- TEAE incidence: Non-Site Specific Gastrointestinal Haemorrhages: 1 (<1%) n (%)
- TEAE incidence: Oesophageal Spasm: 1 (<1%) n (%)
- TEAE incidence: Oesophagitis NOS: 4 (<1%) n (%)
- TEAE incidence: Oral Candidiasis: 2 (<1%) n (%)
- TEAE incidence: Oral Dryness and Saliva Altered: 3 (<1%) n (%)
- TEAE incidence: Oral Soft Tissue Signs and Symptoms: 1 (<1%) n (%)
- TEAE incidence: Otitis Externa NOS: 2 (<1%) n (%)
- TEAE incidence: Otitis Media NOS: 3 (<1%) n (%)
- TEAE incidence: Painful Defaecation: 1 (<1%) n (%)
- TEAE incidence: Pancreatitis Acute: 1 (<1%) n (%)
- TEAE incidence: Paraesthesia: 3 (<1%) n (%)
- TEAE incidence: Paraesthesias and Dysaesthesias: 5 (<1%) n (%)
- TEAE incidence: Periodontitis: 3 (<1%) n (%)
- TEAE incidence: Peripheral Neuropathies NEC: 1 (<1%) n (%)
- TEAE incidence: Peripheral Neuropathy NOS: 1 (<1%) n (%)
- TEAE incidence: Peritonsillar Abscess: 1 (<1%) n (%)
- TEAE incidence: Petit Mal Epilepsy: 1 (<1%) n (%)
- TEAE incidence: Pharyngitis Streptococcal: 1 (<1%) n (%)
- TEAE incidence: Pharyngotonsillitis: 1 (<1%) n (%)
- TEAE incidence: Physical Examination Procedures: 23 (2%) n (%)
- TEAE incidence: Pituitary Analyses Anterior: 2 (<1%) n (%)
- TEAE incidence: Platelet Analyses: 3 (<1%) n (%)
- TEAE incidence: Platelet Count Decreased: 2 (<1%) n (%)
- TEAE incidence: Platelet Count Increased: 1 (<1%) n (%)
- TEAE incidence: Pneumonia NOS: 6 (<1%) n (%)
- TEAE incidence: Post Herpetic Neuralgia: 1 (<1%) n (%)
- TEAE incidence: Proctalgia: 6 (<1%) n (%)
- TEAE incidence: Protein Urine Present: 7 (<1%) n (%)
- TEAE incidence: Pruritus Ani: 3 (<1%) n (%)
- TEAE incidence: Pseudofolliculitis Barbae: 1 (<1%) n (%)
- TEAE incidence: Pyelonephritis Acute NOS: 1 (<1%) n (%)
- TEAE incidence: Pyelonephritis NOS: 3 (<1%) n (%)
- TEAE incidence: Qrs Axis Abnormal: 1 (<1%) n (%)
- TEAE incidence: Radiculitis Lumbosacral: 1 (<1%) n (%)
- TEAE incidence: Rectal Haemorrhage: 20 (1%) n (%)
- TEAE incidence: Rectal Polyp: 1 (<1%) n (%)
- TEAE incidence: Rectal Prolapse: 1 (<1%) n (%)
- TEAE incidence: Rectal Tenesmus: 5 (<1%) n (%)
- TEAE incidence: Rectal Ulcer: 1 (<1%) n (%)
- TEAE incidence: Red Blood Cell Analyses: 2 (<1%) n (%)
- TEAE incidence: Red Blood Cell Count Decreased: 1 (<1%) n (%)
- TEAE incidence: Red Blood Cell Sedimentation Rate Increased: 1 (<1%) n (%)
- TEAE incidence: Red Blood Cells Urine Positive: 2 (<1%) n (%)
- TEAE incidence: Regurgitation of Food: 1 (<1%) n (%)
- TEAE incidence: Renal Function Analyses: 2 (<1%) n (%)
- TEAE incidence: Restless Leg Syndrome: 1 (<1%) n (%)
- TEAE incidence: Retching: 3 (<1%) n (%)
- TEAE incidence: Sciatica: 3 (<1%) n (%)
- TEAE incidence: Sensitivity of Teeth: 1 (<1%) n (%)
- TEAE incidence: Sensory Abnormalities NEC: 6 (<1%) n (%)
- TEAE incidence: Sepsis, Bacteraemia and Viraemia: 3 (<1%) n (%)
- TEAE incidence: Serum Ferritin Decreased: 1 (<1%) n (%)
- TEAE incidence: Sinus Headache: 1 (<1%) n (%)
- TEAE incidence: Sinusitis Acute NOS: 2 (<1%) n (%)
- TEAE incidence: Sinusitis Chronic NOS: 1 (<1%) n (%)
- TEAE incidence: Skeletal and Cardiac Muscle Analyses: 32 (2%) n (%)
- TEAE incidence: Skin and Subcutaneous Tissue Abscess NOS: 1 (<1%) n (%)
- TEAE incidence: Sleep Apnoea Syndrome: 1 (<1%) n (%)
- TEAE incidence: Sleep Apnoeas: 1 (<1%) n (%)
- TEAE incidence: Sleep Talking: 1 (<1%) n (%)
- TEAE incidence: Stomatitis: 1 (<1%) n (%)
- TEAE incidence: Stomatitis and Ulceration: 2 (<1%) n (%)
- TEAE incidence: Stools Watery: 2 (<1%) n (%)
- TEAE incidence: Syncope: 4 (<1%) n (%)
- TEAE incidence: Taeniasis: 1 (<1%) n (%)
- TEAE incidence: Tension Headaches: 2 (<1%) n (%)
- TEAE incidence: Tinea Pedis: 1 (<1%) n (%)
- TEAE incidence: Tissue Enzyme Analyses NEC: 7 (<1%) n (%)
- TEAE incidence: Tongue Disorders NEC: 1 (<1%) n (%)
- TEAE incidence: Tonsillitis Acute NOS: 2 (<1%) n (%)
- TEAE incidence: Tonsillitis NOS: 11 (<1%) n (%)
- TEAE incidence: Tooth Abscess: 2 (<1%) n (%)
- TEAE incidence: Tooth Caries NOS: 3 (<1%) n (%)
- TEAE incidence: Toothache: 11 (<1%) n (%)
- TEAE incidence: Torticollis: 1 (<1%) n (%)
- TEAE incidence: Tracheitis NOS: 5 (<1%) n (%)
- TEAE incidence: Tracheobronchitis: 1 (<1%) n (%)
